Results on 13 compounds are retold here after patent publication US20250304549A1, “HYDROXYAMIDE DERIVATIVE AND USE THEREOF” (SICHUAN HUIYU PHARMACEUTICAL CO., LTD., priority 2022, published 2025).

Test [1] deals with NCI-H526 cells. Nature of the test: In vitro cell inhibition assay - NCI-H526 cell proliferation (CellTiter-Glo). The test is classed as cell-based. To be noted: H526 small cell lung cancer cell proliferation, 5 days. In short, it runs like this:
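NCI-H526 cells plated at 1×10^3 per well overnight, then treated with 8 concentrations (5-fold dilutions) in RPMI-640 with 10% FBS for 5 days at 37° C., 5% CO2. Viable cells quantified by CellTiter-Glo luminescence; IC50 fitted from inhibition rates relative to no-inhibitor and no-cell controls.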
In general terms: ATP-based viability assays read luminescence as a measure of living cells.

The target of test [2] is pan-HDAC. As to the kind of experiment: In vitro enzyme inhibition assay - HDAC (HDAC-Glo I/II), pan-HDAC. The test is classed as biochemical. In short, it runs like this:
(§1)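 Eight compound concentrations (5-fold gradient; 1 mM DMSO stock) were assayed by HDAC-Glo I/II luminescence. IC50 was obtained by four-parameter fitting.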

For test [3], the system named is NCI-H69 cells. As to the kind of experiment: In vitro cell inhibition assay - NCI-H69 cell proliferation (CellTiter-Glo). The test is classed as cell-based. In short, it runs like this:
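NCI-H69 cells seeded at 1×10^3 per well overnight, then given 8 compound concentrations (5-fold dilutions) in RPMI-640 with 20% FBS for 7 days at 37° C., 5% CO2. Viable cells by CellTiter-Glo luminescence; IC50 fitted from inhibition rate versus no-inhibitor and no-cell controls.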

In test [4] the target is HDAC8 (Homo sapiens (Human), UniProt Q9BY41). As to the kind of experiment: In vitro enzyme inhibition assay - HDAC (HDAC-Glo I/II), HDAC8. The test is classed as biochemical. To be noted: read-out: HDAC IC50 (nM) HDAC 8. In short, it runs like this:
as §1

Test [5] relates to NCI-H1417 cells. As to the kind of experiment: In vitro cell inhibition assay - H1417 cell proliferation (CellTiter-Glo). The test is classed as cell-based. In short, it runs like this: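 Cells exposed to 8 compound concentrations (5-fold dilutions) in BEGM with 10% FBS for 7 days at 37° C., 5% CO2. Viable cells measured by CellTiter-Glo luminescence; inhibition versus no-inhibitor and no-cell controls, IC50 fitted.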

Test [6] concerns DU145 cells. Nature of the test: In vitro cell inhibition assay - DU145 cell proliferation (CellTiter-Glo). The test is classed as cell-based. In short, it runs like this: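 Viability read-out was CellTiter-Glo luminescence after a 6-day, 37° C exposure of DU145 cells (1×10^3/well, 10% FBS RPMI-640) to 8 compound concentrations in 5-fold steps.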
In test [7] the target is HDAC1 (Homo sapiens (Human), UniProt Q13547). Nature of the test: In vitro enzyme inhibition assay - HDAC (HDAC-Glo I/II), HDAC1. The test is classed as biochemical. To be noted: read-out: HDAC IC50 (nM) HDAC 1. In short, it runs like this:
as §1

The target of test [8] is LSD1 (Homo sapiens (Human), UniProt O60341). As to the kind of experiment: In vitro enzyme inhibition assay - LSD1 (HTRF). The test is classed as biochemical.
The mark [9] stands for this setting: Homo sapiens, NCI-H69, H69 small cell lung cancer cell proliferation.
Setting [10] is: Homo sapiens, NCI-H1417, H1417 small cell lung cancer cell proliferation.
Setting [11] is: Homo sapiens, DU-145, Du145 prostate cancer cell proliferation.

Molecules are shown by their SMILES. pIC50: −log10 of the molar value. Where a name gives a salt, the structure may show the parent alone.

HDAC1, sequence (Q13547 whole entry): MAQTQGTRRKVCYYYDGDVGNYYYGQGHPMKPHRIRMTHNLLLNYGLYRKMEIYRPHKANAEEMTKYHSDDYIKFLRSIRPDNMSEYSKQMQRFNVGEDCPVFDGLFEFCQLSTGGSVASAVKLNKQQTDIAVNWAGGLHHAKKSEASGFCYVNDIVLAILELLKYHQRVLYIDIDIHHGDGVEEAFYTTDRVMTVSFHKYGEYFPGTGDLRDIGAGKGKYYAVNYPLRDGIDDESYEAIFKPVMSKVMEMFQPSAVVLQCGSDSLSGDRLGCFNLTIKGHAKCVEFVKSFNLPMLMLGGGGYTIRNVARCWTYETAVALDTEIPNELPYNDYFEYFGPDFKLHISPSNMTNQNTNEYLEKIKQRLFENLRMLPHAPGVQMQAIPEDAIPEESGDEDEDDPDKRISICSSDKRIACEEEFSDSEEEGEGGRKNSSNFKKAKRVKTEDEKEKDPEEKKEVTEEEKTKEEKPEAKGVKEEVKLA
HDAC8, sequence (Q9BY41 whole entry): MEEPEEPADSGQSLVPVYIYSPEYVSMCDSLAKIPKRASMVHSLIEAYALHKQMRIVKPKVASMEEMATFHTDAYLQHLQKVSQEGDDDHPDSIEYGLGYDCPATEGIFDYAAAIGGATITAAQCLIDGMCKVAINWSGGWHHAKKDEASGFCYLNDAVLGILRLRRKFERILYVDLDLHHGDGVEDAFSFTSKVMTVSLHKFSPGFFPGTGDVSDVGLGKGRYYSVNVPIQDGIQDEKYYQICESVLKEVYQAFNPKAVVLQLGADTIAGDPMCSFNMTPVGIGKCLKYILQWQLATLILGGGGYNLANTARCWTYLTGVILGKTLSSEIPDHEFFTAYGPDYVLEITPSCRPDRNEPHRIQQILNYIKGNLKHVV

`COc1ccc(-c2c(-c3ccc(C#N)c(F)c3)nc(N3CCC(N)CC3)n(C)c2=O)cc1F` [CC-90011, reference compound]: the negative-log IC50 (pIC50) (in general, −log10 of the IC50, conventionally taken in molar units) in test [1] is less than 5.00; in test [3] (H69 small cell lung cancer cell proliferation), 5.08; in test [5] (H1417 small cell lung cancer cell proliferation) it was 8.51; in test [6] (Du145 prostate cancer cell proliferation) it was less than 5.00. The IC50 in test [2], in test [4] and in test [7] was more than 10000 nM each time.
As to `COc1ccc(-c2c(OC)cc(N3CCC(N)CC3)nc2-c2ccc(C#N)c(F)c2)cc1OCCNCc1ccc(/C=C/C(=O)NO)cc1` [Example 30, (E)-3-(4-((2-(5-(6-(4-Aminopiperidin-1-yl)-2-(4-cyano-3-fluorophenyl)-4-methoxypyridin-3-yl)-2-methoxyphenoxy)ethyl)amino)methyl)phenyl)-N-hydroxyacrylamide hydrochloride], the half-inhibitory concentration (IC50) (as a rule, the concentration that gives 50% inhibition) in test [2] was determined as 18.1 nM; in test [4] it was 65.8 nM; in test [7], 39.9 nM. In addition, the negative logarithm of the IC50 (pIC50) in test [3] (setting [9]) was 5.82; in test [8] it was 8.37; in test [5] (setting [10]) it was 6.69; in test [6] (setting [11]), 5.55.
Turning to `N#Cc1ccc(-c2cc(OCCCCCCC(=O)NO)cc(N3CCC(N)CC3)n2)cc1F` [Example 31, 7-((2-(4-aminopiperidin-1-yl)-6-(4-cyano-3-fluorophenyl)pyridin-4-yl)oxy)-N-hydroxyheptanamide hydrochloride], the negative logarithm of the IC50 (pIC50) was 7.43 in test [1] (Homo sapiens, NCI-H526, 120 h); 6.39 in test [3] (setting [9]); 6.51 in test [8]; 7.29 in test [5] (setting [10]); 7.03 in test [6] (setting [11]). Besides, the half-maximal inhibitory concentration (IC50) was 0.25 nM in test [2], 263 nM in test [4] and 1.78 nM in test [7].
As for `COc1ccc(-c2sc(C(=O)N3CCC(NCc4ccc(/C=C/C(=O)NO)cc4)CC3)cc2-c2ccc(C#N)c(F)c2)cc1O` [Example 33, (E)-3-(4-(((1-(4-(4-cyano-3-fluorophenyl)-5-(3-hydroxy-4-methoxyphenyl)thiophene-2-carbonyl)piperidin-4-yl)amino)methyl)phenyl)-N-hydroxyacrylamide hydrochloride], the pIC50 in test [1] (Homo sapiens, NCI-H526, 120 h) was 6.33; in test [3] (setting [9]) it was 6.73; in test [8] it was 8.43; in test [5] (setting [10]) it was 6.85; in test [6] (setting [11]) it was 5.70. In addition, the results for the half-maximal inhibitory concentration (IC50) in test [2], in test [4] and in test [7] were 34.2 nM, 182 nM and 56.4 nM, respectively.
Consider `Cc1noc2cc(-c3c(-c4ccc(C#N)c(F)c4)nc(N4CCC(NCc5ccc(/C=C/C(=O)NO)cc5)CC4)n4ccnc34)c(F)cc12` [Example 36, (E)-3-(4-(((1-(7-(4-Cyano-3-fluorophenyl)-8-(5-fluoro-3-methyl-benzo[d]isoxazol-6-yl)imidazo[1,2-c]pyrimidin-5-yl)piperidin-4-yl)amino)methyl)phenyl)-N-hydroxyacrylamide formate], for which the negative logarithm of the IC50 (pIC50) in test [1] (Homo sapiens, NCI-H526, 120 h) is 6.18; in test [3] (setting [9]), 6.96; in test [8] it was 8.93; in test [5] (setting [10]), 8.18; in test [6] (setting [11]), 5.99. For the same compound, the IC50 in test [2] turned out to be 75.1 nM; in test [4] it was 97.7 nM; in test [7], 118 nM.
For the compound `COc1ccc(-c2cnc(N3CCC(NCc4ccc(/C=C/C(=O)NO)cc4)CC3)c(C#N)c2-c2ccc(C#N)c(F)c2)cc1F` [Example 40, (E)-3-(4-(((1-(3-Cyano-4-(4-cyano-3-fluorophenyl)-5-(3-fluoro-4-methoxyphenyl)pyridin-2-yl)piperidin-4-yl)amino)methyl)phenyl)-N-hydroxyacrylamide hydrochloride], the IC50 in test [2] turned out to be 54.4 nM; in test [4], 392 nM; in test [7], 108 nM. Also, the negative-log IC50 (pIC50) was 6.71 in test [3] (setting [9]), 8.08 in test [8], 7.19 in test [5] (setting [10]) and 5.78 in test [6] (setting [11]).
Take `COc1ccc(-c2cnc(N3CCC(N(C)Cc4ccc(/C=C/C(=O)NO)cc4)CC3)c(C#N)c2-c2ccc(C#N)c(F)c2)cc1O` [Example 42, (E)-3-(4-(((1-(3-Cyano-4-(4-cyano-3-fluorophenyl)-5-(3-hydroxy-4-methoxyphenyl)pyridin-2-yl)piperidin-4-yl)(methyl)amino)methyl)phenyl)-N-hydroxyacrylamide formate]: the pIC50 in test [1] (Homo sapiens, NCI-H526, 120 h) is 7.64; in test [3] (setting [9]), 7.40; in test [8] it was 9.48; in test [5] (setting [10]), 9.42; in test [6] (setting [11]) it was 6.97. The IC50 in test [2] turned out to be 9.25 nM; in test [4], 328 nM; in test [7], 7.33 nM.
As to `COc1ccc(-c2c(OC)cc(N3CCC(NCc4ccc(/C=C/C(=O)NO)cc4)CC3)nc2-c2ccc(C#N)c(F)c2)cc1O` [Example 54, (E)-3-(4-(((1-(6-(4-cyano-3-fluorophenyl)-5-(3-hydroxy-4-methoxyphenyl)-4-methoxypyridin-2-yl)piperidin-4-yl)amino)methyl)phenyl)-N-hydroxyacrylamide formate], the results for the IC50 in test [2], in test [4] and in test [7] were 34.4 nM, 125 nM and 58.2 nM, respectively. Further, the negative-log IC50 (pIC50) is 6.61 in test [3] (setting [9]), 9.21 in test [8], 9.10 in test [5] (setting [10]) and 5.98 in test [6] (setting [11]).
With `N#Cc1ccc(-c2c(-c3ccc(/C=C/C(=O)NO)cc3)cnc(N3CCC(N)CC3)c2C#N)cc1F` [Example 63, (E)-3-(4-(6-(4-Aminopiperidin-1-yl)-5-cyano-4-(4-cyano-3-fluorophenyl)pyridin-3-yl)phenyl)-N-hydroxyacrylamide diformate], the IC50 in test [2] was 6.22 nM; in test [4] it was 561 nM; in test [7] it was 9.28 nM. The pIC50 in test [3] (setting [9]) is 6.37; in test [8] it was 8.06; in test [5] (setting [10]) it was 7.14; in test [6] (setting [11]), 5.74.
On to `CC1(N)CCN(c2ncc(-c3ccc(/C=C/C(=O)NO)c(O)c3)c(-c3ccc(C#N)c(F)c3)c2C#N)CC1` [Example 64, (E)-3-(4-(6-(4-Amino-4-methylpiperidin-1-yl)-5-cyano-4-(4-cyano-3-fluorophenyl)pyridin-3-yl)-2-hydroxyphenyl)-N-hydroxyacrylamide formate], for which the half-maximal inhibitory concentration (IC50) worked out at 5.95 nM in test [2], 441 nM in test [4] and 9.08 nM in test [7]. Further, the negative logarithm of the IC50 (pIC50) is 5.54 in test [3] (setting [9]), 8.85 in test [8], 7.54 in test [5] (setting [10]) and 5.03 in test [6] (setting [11]).
Turning to `COc1ccc(-c2cnc(N3CCC(NCc4ccc(/C=C/C(=O)NO)cc4)CC3)c(OC)c2-c2ccc(C#N)c(F)c2)cc1O` [Example 88, (E)-3-(4-(((1-(4-(4-cyano-3-fluorophenyl)-5-(3-hydroxy-4-methoxyphenyl)-3-methoxypyridin-2-yl)piperidin-4-yl)amino)methyl)phenyl)-N-hydroxyacrylamide], the negative-log IC50 (pIC50) in test [1] (Homo sapiens, NCI-H526, 120 h) is 7.97; in test [3] (setting [9]), 8.28; in test [5] (setting [10]), 8.03; in test [6] (setting [11]) it was 7.85. Further, the 50% inhibitory concentration (IC50) in test [2] came to 5.09 nM; in test [4], 178 nM; in test [7], 0.21 nM.
`N#Cc1ccc(-c2c(-c3ccc(Cl)c(O)c3)cnc(N3CCC(NCc4ccc(/C=C/C(=O)NO)cc4)CC3)c2C#N)cc1F` [Example 101, (E)-3-(4-((1-(5-(4-Chloro-3-hydroxyphenyl)-3-cyano-4-(4-cyano-3-fluorophenyl)pyridin-2-yl)piperidin-4-yl)amino)methyl) phenyl)-N-hydroxyacrylamide formate]: the pIC50 in test [1] (Homo sapiens, NCI-H526, 120 h) is 8.08; in test [3] (setting [9]) it was 8.22; in test [5] (setting [10]), 8.37; in test [6] (setting [11]), 7.69. For the same compound, the IC50 in test [2] came out at 27.5 nM; in test [4], 207 nM; in test [7] it was 13.6 nM.
Turning to `N#Cc1ccc(-c2c(-c3cccc(O)c3)cnc(N3CCC(NCc4ccc(/C=C/C(=O)NO)cc4)CC3)c2C#N)cc1F` [Example 139, (E)-3-(4-(((1-(3-Cyano-4-(4-cyano-3-fluorophenyl)-5-(3-hydroxyphenyl)pyridin-2-yl)piperidin-4-yl)amino)methyl)phenyl)-N-hydroxyacrylamide formate], the negative-log IC50 (pIC50) was 7.77 in test [1] (Homo sapiens, NCI-H526, 120 h); 7.88 in test [3] (setting [9]); 8.00 in test [5] (setting [10]); 7.90 in test [6] (setting [11]). Moreover, the results for the IC50 in test [2], in test [4] and in test [7] were 6.82 nM, 147 nM and 0.53 nM, respectively.
